Molecular target: T1, D-3-phosphoglycerate dehydrogenase (Homo sapiens, UniProt O43175)
T1 sequence (O43175 whole entry): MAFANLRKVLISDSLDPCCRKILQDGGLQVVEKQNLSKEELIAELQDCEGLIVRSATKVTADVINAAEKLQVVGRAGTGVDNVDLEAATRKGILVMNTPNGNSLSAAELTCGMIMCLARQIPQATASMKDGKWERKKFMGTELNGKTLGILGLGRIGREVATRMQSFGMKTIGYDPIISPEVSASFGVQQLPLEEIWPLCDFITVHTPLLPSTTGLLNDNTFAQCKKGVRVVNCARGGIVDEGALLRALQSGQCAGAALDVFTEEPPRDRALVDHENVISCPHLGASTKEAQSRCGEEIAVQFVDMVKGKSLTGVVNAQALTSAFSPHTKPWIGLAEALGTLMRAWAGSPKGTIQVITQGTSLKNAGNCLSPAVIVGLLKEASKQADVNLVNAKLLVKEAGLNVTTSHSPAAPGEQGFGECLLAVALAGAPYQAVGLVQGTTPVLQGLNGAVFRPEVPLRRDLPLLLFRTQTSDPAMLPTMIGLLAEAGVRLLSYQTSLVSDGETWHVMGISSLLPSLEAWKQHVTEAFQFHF
Assay: Enzyme Assay: PHGDH assay buffer contained 50 mM TEA pH 8.0, 10 mM MgCl2, 0.05% BSA, and 0.01% Tween-20. PHGDH enzyme buffer consisted of assay buffer with 20 nM PHGDH and 0.2 mg/mL diaphorase. PHGDH substrate buffer contained 0.3 mM NAD 1.25 mM glutamate, 0.1 mM 3-phosphoglycerate, 0.2 mM resazurin, 1 μM PSAT1, and 1 μM PSPH. qHTS was performed in 1536-well plates dispensed with a BioRAPTR FRD. Each well contained equal volumes of substrate buffer […]. Plates were read at 0 minutes and 20 minutes at room temperature with a ViewLux uHTS Microplate Imager (PerkinElmer). Follow-up assays were performed in black 384-well plates (Greiner) in 20 μL of enzyme buffer to which compounds were added in dose-response with an HP D300 digital dispenser (Hewlett-Packard), followed by addition of 20 μL of substrate buffer. Plates were incubated at room temperature (25° C.) and read at 0 and 20 minutes with a Spectramax M5 plate reader (Molecular Devices) in fluorescence intensity mode with a λex=550 nm and λem=600 nm (emission cutoff=590 nm).

Structure (SMILES): Cc1cc(C)nc(NC(=S)N2CCN(c3cncnc3)CC2)c1
- IC50: > 20 µM

From ChEMBL document CHEMBL5728931, “Inhibitors of phosphoglycerate dehydrogenase (PHGDH) and uses thereof” (2022)
